Experimental data as given in paper PMC5855801, “Benzothiophenone Derivatives Targeting Mutant Forms of Estrogen Receptor-α in Hormone-Resistant Breast Cancers” (International Journal of Molecular Sciences, 2018).
pIC50: −log10 of the molar value. Like-named read-outs stand apart in the source and are kept apart here.

Tests used:
ERα [1] = target: T1, ERα (Homo sapiens, UniProt P03372); set-up: method as in PMID 25848700; settings: estrogen-sensitive T47DKBluc cells; previously reported; read-out: IC50 of previously-reported template compound; cited from earlier work
T1 construct: ERα-positive T47DKBluc cells were grown in phenol red-free RPMI 1640; endogenous in cells; host or cells: T47DKBluc (ATCC CRL-2865)
T1 sequence (P03372 1-595): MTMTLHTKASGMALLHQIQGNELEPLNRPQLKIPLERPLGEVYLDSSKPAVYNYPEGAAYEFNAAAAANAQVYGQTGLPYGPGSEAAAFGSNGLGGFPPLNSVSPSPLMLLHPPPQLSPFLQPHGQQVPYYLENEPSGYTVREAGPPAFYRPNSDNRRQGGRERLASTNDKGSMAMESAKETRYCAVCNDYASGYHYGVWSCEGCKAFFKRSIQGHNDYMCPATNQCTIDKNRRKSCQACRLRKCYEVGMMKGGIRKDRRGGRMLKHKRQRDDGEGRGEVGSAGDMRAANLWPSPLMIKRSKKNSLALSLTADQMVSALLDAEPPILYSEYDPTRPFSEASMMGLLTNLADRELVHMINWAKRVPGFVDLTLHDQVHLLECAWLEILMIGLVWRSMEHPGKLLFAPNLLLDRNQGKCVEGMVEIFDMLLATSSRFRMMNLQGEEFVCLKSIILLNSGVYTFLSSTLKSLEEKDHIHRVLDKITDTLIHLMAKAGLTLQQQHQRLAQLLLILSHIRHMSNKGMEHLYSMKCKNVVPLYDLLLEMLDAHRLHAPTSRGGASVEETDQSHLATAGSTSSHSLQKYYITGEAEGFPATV

ERα LBD = target: T2, ERα LBD (Homo sapiens, UniProt P03372); assay: Biolayer interferometry (BLI) direct binding assay; settings: biotinylated ERα LBD on streptavidin sensor, 3–100 μM
T2 construct: ERα LBD (amino acids 302–552) was cloned into the pAN4 AviTag™ Vector; made in house
T2 sequence (P03372 302-552): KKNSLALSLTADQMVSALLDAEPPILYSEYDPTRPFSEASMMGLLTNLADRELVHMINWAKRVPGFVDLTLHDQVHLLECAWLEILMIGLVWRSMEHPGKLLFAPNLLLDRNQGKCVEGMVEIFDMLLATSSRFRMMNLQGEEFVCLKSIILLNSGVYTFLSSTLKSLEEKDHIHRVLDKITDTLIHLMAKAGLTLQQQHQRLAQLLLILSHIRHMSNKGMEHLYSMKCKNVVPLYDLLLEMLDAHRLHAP
Experimental: The direct binding of small molecules to the ERα-LBD was quantified by BLI using an Octet RED apparatus (Pall ForteBio, Menlo Park, CA, USA). ERα LBD (amino acids 302–552) was cloned into the pAN4 AviTag™ Vector, (Avidity, Aurora, CO, USA). Biotinylated ERα-LBD was purified as described previously. Biotinylated protein (bERα LBD at 0.05 mg/mL) was bound to the super streptavidin sensors (Pall ForteBio) overnight at 4 °C in assay buffer (20 mM Tris, pH 7.5, 500 mM NaCl, 0.2 mM tris(2-carboxyethyl)phosphine TCEP, 0.02 mM E2, 5% glycerol and 5% dimethyl sulfoxide (DMSO). The compounds were dissolved in the assay buffer in a two-fold dilution series ranging from 3.1–100 μM. In all experiments, a known AF2-interacting peptide, PGC-1α (Elim Biopharmaceuticals, Hayward, CA, USA) was used as a control to confirm the functionality of the bERα LBD.

ERα [2] = target: T1, ERα; assay: Estrogen-responsive luciferase reporter transcriptional assay in T47DKBluc cells; assay type: cell-based; settings: 1 nM E2, 24 h; for pIC50: read-out: IC50 against ERα in the luciferase reporter-based transcriptional assay
Experimental: T47DKBluc cells (ATCC® CRL-2865^TM, Manassa, VA, USA) stably transfected with a 3X-ERE–promoter–luciferase reporter gene construct, pGL2.TATA.Inr.luc.neo [38], were used to measure inhibition of ERα-driven transcriptional activity of the luciferase reporter.
This assay was performed as described previously. Briefly, ERα-positive T47DKBluc cells were grown in phenol red-free RPMI 1640 supplemented with 10% CSS for 5 days. The cells were seeded on 96-well plates (2 × 10^4 cells/well). After 24 h, the cells were treated with test compounds in the presence of 1 nM E2. Twenty four hours post-treatment, the cells were lysed with 50 μL of 1× passive lysis buffer (Promega, Madison, WI, USA). Twenty microliters of the lysate from each treatment were transferred onto a white, 96-well, flat-bottomed plate (Corning Life Sciences, Corelle, NY, USA), and the luminescent signal was measured after adding 50 μL of the luciferase assay reagent (Promega, Madison, WI, USA) on a Tecan M200Pro microplate reader (Tecan, Menedorf, Switzerland). Differences in growth were normalised against total protein concentration, which was measured by the bicinchoninic acid (BCA) assay.

[3] = target: T3, ERα-LBD and FL-PGC1α peptide (Homo sapiens, UniProt P03372); assay: LanthaScreen TR-FRET ER Alpha coactivator displacement assay; assay type: biochemical; settings: three-fold dilution range, dose-dependent
T3 construct: it was incubated with GST-tagged ERα-LBD (final concentration, 7.25 nM); purchased Life Technologies PV4544
T3 sequence (P03372 311-547 limits assumed): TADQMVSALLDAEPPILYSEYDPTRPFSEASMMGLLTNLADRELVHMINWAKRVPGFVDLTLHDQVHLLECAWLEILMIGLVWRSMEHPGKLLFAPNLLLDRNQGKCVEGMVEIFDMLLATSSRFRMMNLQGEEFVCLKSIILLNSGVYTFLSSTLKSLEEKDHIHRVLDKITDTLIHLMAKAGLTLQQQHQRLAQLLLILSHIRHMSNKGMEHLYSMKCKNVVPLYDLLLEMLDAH
Experimental: The LanthaScreen TR-FRET ER Alpha Coactivator Assay kit (PV4544; Life Technologies) was used as per the manufacturer’s instructions and described previously. To assess the binding of VPC-16464 to the AF2 site, it was incubated with GST-tagged ERα-LBD (final concentration, 7.25 nM) in the presence of a fluorescently-labelled co-activator peptide (fluorescein-PGC-1α) at a final concentration of 250 nM, terbium (Tb)-labelled anti-GST antibody (final concentration, 5 nM) and E2 (final concentration, EC80 […]). Cold SRC-2–3 and PGC-1α peptides were used as positive controls for AF2 site-specific binding. TR-FRET was analysed on a Synergy 4 hybrid microplate reader (BioTek, Winooski, VT, USA) with the settings at 340-nm excitation and 495- and 520-nm emission. The emission ratio (520:495) was analysed and plotted.

Direct binding to ERα LBD (BLI) (ERα LBD) | pIC50 (ERα [2]) | Structure (SMILES) | also measured
– | – | CCOc1cc(Br)cc(/C=N/NC(=O)c2ccc3c(c2)OCCO3)c1O [VPC-16230] | pIC50 (ERα [1]): 5.24
direct, reversible binding | 5.57 | CC(=O)N(/N=C1\Sc2ccccc2C1=O)c1ccccc1Cl [VPC-16464] | Displacement of FL-PGC1α peptide from ERα-LBD AF2 site (TR-FRET) [3]: successfully displaced
abolished | – | CC(=O)N(/N=C1\Cc2ccccc2C1=O)c1ccccc1Cl [VPC-16600] | IC50 against ERα in the luciferase reporter-based transcriptional assay (ERα [2]): Inactive
abolished | – | CC(=O)N(/N=C1\Oc2ccccc2C1=O)c1ccccc1Cl [VPC-16602] | IC50 against ERα in the luciferase reporter-based transcriptional assay (ERα [2]): Inactive
– | 5.54 | CC(=O)N(/N=C1\Sc2c(F)cccc2C1=O)c1ccccc1Cl [VPC-16607] | –
– | 5.42 | CC(=O)N(/N=C1\Sc2ccccc2C1=O)c1cccc(C)c1 [compound 16457] | –
– | 4.91 | CC(=O)N(/N=C1\Sc2ccccc2C1=O)c1ccc(C)cc1 [compound 16475] | –
– | 5.01 | CC(=O)N(/N=C1\Sc2ccccc2C1=O)c1ccc(C)c(C)c1 [compound 16484] | –
– | 5.33 | CC(=O)N(/N=C1\Sc2ccccc2C1=O)c1ccccc1F [compound 16487] | –
